From PubChem BioAssay AID2060344 (Molecular Pharmacology Branch, DTP, NCI, 2025)

Tested on: SK-MEL-2 multi-cell spheroids, viability
Test: Anticancer human tumor SK-MEL-2 cell line growth inhibition [TAK];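 note: spheroids exposed to drugs for seven days before readout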;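 for viability, T/C: percent of DMSO vehicle control luminescence so 100% = untreated viability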
Conditions: for IC50: curve of first compound; for viability, T/C: stronger effect = lower value; active = viability on the fitted dose curve at most 10% of control; inactive = the rest
From the text: Combinatorial screen of targeted agents with TAK-243 and ipatasertib in multi-cell type tumor spheroids
A high-throughput screen of multi-cell type tumor spheroids was designed to identify active combinations of targeted small molecules and TAK-243 or ipatasertib. Complex spheroids include a stromal component modeled by human endothelial cells (HUVEC) and fibroblasts modeled by human mesenchymal stem cells (MSCs). The concentration ranges selected for each drug and investigational agent were based upon clinically achievable concentrations if the clinical Cmax of the agent was known.
Compounds. The drugs and investigational agents: TAK-243 (785004), ipatasertib (767898), everolimus (733504), selumetinib (741078), bortezomib (756655), trametinib (758246), ixazomib (758254), vemurafenib (761431), dabrafenib (764134), sapanisertib (764658), alpelisib (765974), and copanlisib (816437), were obtained from the National Cancer Institute (NCI) Developmental Therapeutics Program Chemical Repository. The FDA-approved anticancer drug set is available from the NCI Developmental Therapeutics Program. […] The stock solutions were prepared in dimethyl sulfoxide (DMSO, Sigma-Aldrich, St. Louis, MO, cat. D2650) at 800-fold the tested concentration and stored at -70 degrees C prior to their use. All drugs and investigational agents were tested over a range starting from a high concentration at or near the clinical Cmax and decreasing in half-log increments. If the clinical Cmax for an agent had not been determined, the highest concentration tested was 10 microM.
NCI60 Cell Culture. NCI60 cell lines were obtained from the NCI Developmental Therapeutics Program Tumor Repository. For each lot of cells, the Repository performed Applied Biosystems AmpFLSTR Identifiler testing with PCR amplification to confirm consistency with the published Identifier STR profile for each cell line. Cells were kept in continuous culture for no more than 20 passages. The optimal seeding densities for each of the cell lines at each time point assessed were determined prior to performing the concentration response studies. Briefly, the NCI60 human tumor lines were grown as monolayers in RPMI 1640 medium supplemented with 10% FBS and 2 mmol/L L-glutamine.
An additional 2 lines were from the NCI60 cell line panel including melanomas, MALME-3M and SK-MEL-2. Pooled donor human umbilical vein endothelial cells (HUVEC, Lonza, cat. CC-2519) and human mesenchymal stem cells (hMSC, Lonza, cat. PT-2501) were purchased from Lonza (Walkersville, MD).
PDMR cell lines were grown in complete medium (DC medium): Dulbecco's modified Eagle's medium (DMEM)/F12 supplemented with 5% fetal bovine serum (FBS), 2 mM L-glutamine, 100 U/mL penicillin and 100 µg/ml streptomycin, 0.4 µg/ml hydrocortisone, 10 ng/ml epidermal growth factor (EGF) recombinant human protein, 24 µg/mL adenine, and 0.1 mg/mL primocin. During culture from frozen stock vials, PDMR cells were cultured in the same medium containing 10 µM Y-27632 (see Table 3). The PDCs were cultured in complete DMEM/F12 media without 10 microM Y-27632 dihydrochloride for at least two passages prior to the screen. The pooled donor HUVEC and hMSC were cultured in endothelial cell growth medium 2 (PromoCell, Heidelberg, Germany, cat. C-22011) and mesenchymal stem cell growth medium 2 (PromoCell, cat. C-28009), respectively. For all experiments, HUVEC and hMSC were used at passages </=5.
For the pre-screen, cell seeding densities were determined from a titration spanning the range from 5,000 to 313 cells per well. The mct-spheroids including 60% malignant cells, 25% HUVEC and 15% MSC dispensed as a mixture into U-bottom Ultra-Low Attachment 384-well plates (Corning, NY)
High-throughput Drug Combination Screening.
Prior to their inoculation into 384-well plates, malignant cells, HUVEC, and hMSC were removed from T flasks using TrypLE express (Thermo Fisher Scientific, cat. 12605036) and harvested by centrifugation for 5 min at 233 x g. […]

CC(=O)Nc1cccc(-n2c(=O)n(C3CC3)c(=O)c3c(Nc4ccc(I)cc4F)n(C)c(=O)c(C)c32)c1 + CC(C)NCC(C(=O)N1CCN(c2ncnc3c2C(C)CC3O)CC1)c1ccc(Cl)cc1
inactive: viability, T/C (second compound 0.3 µM, first compound 94.9 pM) 78.9% | viability, T/C (second compound 0.3 µM, first compound 0.0003 µM) 35.2% | viability, T/C (second compound 0.3 µM, first compound 0.000949 µM) 10.4% | viability, T/C (second compound 0.949 µM, first compound 94.9 pM) 63.2% | viability, T/C (second compound 0.949 µM, first compound 0.0003 µM) 29.8% | viability, T/C (second compound 0.949 µM, first compound 0.000949 µM) 10.2% | viability, T/C (second compound 3 µM, first compound 94.9 pM) 47% | viability, T/C (second compound 3 µM, first compound 0.0003 µM) 21% | viability, T/C (second compound 9.49 µM, first compound 94.9 pM) 39% | viability, T/C (second compound 9.49 µM, first compound 0.0003 µM) 19.2% | viability, T/C (second compound 30 µM, first compound 94.9 pM) 39.5% | viability, T/C (second compound 30 µM, first compound 0.0003 µM) 17.5%
0.15 nM: IC50 (second compound 0.949 µM)
< 0.0949 nM: IC50 (second compound 3 µM) | IC50 (second compound 9.49 µM) | IC50 (second compound 30 µM)
0.203 nM: IC50 (second compound 0.3 µM)
active: viability, T/C (second compound 0.3 µM, first compound 0.003 µM) 5.62% | viability, T/C (second compound 0.3 µM, first compound 0.00949 µM) 2.19% | viability, T/C (second compound 0.3 µM, first compound 0.03 µM) 1.65% | viability, T/C (second compound 0.949 µM, first compound 0.003 µM) 3.49% | viability, T/C (second compound 0.949 µM, first compound 0.00949 µM) 1.83% | viability, T/C (second compound 0.949 µM, first compound 0.03 µM) 1.53% | viability, T/C (second compound 3 µM, first compound 0.000949 µM) 3.96% | viability, T/C (second compound 3 µM, first compound 0.003 µM) 2.14% | viability, T/C (second compound 3 µM, first compound 0.00949 µM) 1.28% | viability, T/C (second compound 3 µM, first compound 0.03 µM) 0.92% | viability, T/C (second compound 9.49 µM, first compound 0.000949 µM) 5.57% | viability, T/C (second compound 9.49 µM, first compound 0.003 µM) 1.46% | viability, T/C (second compound 9.49 µM, first compound 0.00949 µM) 1.58% | viability, T/C (second compound 9.49 µM, first compound 0.03 µM) 0.65% | viability, T/C (second compound 30 µM, first compound 0.000949 µM) 3.27% | viability, T/C (second compound 30 µM, first compound 0.003 µM) 1.19% | viability, T/C (second compound 30 µM, first compound 0.00949 µM) 0.56% | viability, T/C (second compound 30 µM, first compound 0.03 µM) 1.06%

CC(C)CC(NC(=O)C(Cc1ccccc1)NC(=O)c1cnccn1)B(O)O (stereo not given) + CC(C)NCC(C(=O)N1CCN(c2ncnc3c2C(C)CC3O)CC1)c1ccc(Cl)cc1
7.76 nM: IC50 (second compound 30 µM)
> 10 nM: IC50 (second compound 0.3 µM) | IC50 (second compound 0.949 µM) | IC50 (second compound 3 µM)
4.24 nM: IC50 (second compound 9.49 µM)
inactive: viability, T/C (second compound 0.3 µM, first compound 31.6 pM) 116% | viability, T/C (second compound 0.3 µM, first compound 0.0001 µM) 110% | viability, T/C (second compound 0.3 µM, first compound 0.000316 µM) 104% | viability, T/C (second compound 0.3 µM, first compound 0.001 µM) 117% | viability, T/C (second compound 0.3 µM, first compound 0.00316 µM) 122% | viability, T/C (second compound 0.3 µM, first compound 0.01 µM) 103% | viability, T/C (second compound 0.949 µM, first compound 31.6 pM) 120% | viability, T/C (second compound 0.949 µM, first compound 0.0001 µM) 116% | viability, T/C (second compound 0.949 µM, first compound 0.000316 µM) 111% | viability, T/C (second compound 0.949 µM, first compound 0.001 µM) 119% | viability, T/C (second compound 0.949 µM, first compound 0.00316 µM) 111% | viability, T/C (second compound 0.949 µM, first compound 0.01 µM) 118% | viability, T/C (second compound 3 µM, first compound 31.6 pM) 119% | viability, T/C (second compound 3 µM, first compound 0.0001 µM) 117% | viability, T/C (second compound 3 µM, first compound 0.000316 µM) 98.7% | viability, T/C (second compound 3 µM, first compound 0.001 µM) 106% | viability, T/C (second compound 3 µM, first compound 0.00316 µM) 114% | viability, T/C (second compound 3 µM, first compound 0.01 µM) 114% | viability, T/C (second compound 9.49 µM, first compound 31.6 pM) 118% | viability, T/C (second compound 9.49 µM, first compound 0.0001 µM) 119% | viability, T/C (second compound 9.49 µM, first compound 0.000316 µM) 113% | viability, T/C (second compound 9.49 µM, first compound 0.001 µM) 109% | viability, T/C (second compound 9.49 µM, first compound 0.00316 µM) 62.5% | viability, T/C (second compound 9.49 µM, first compound 0.01 µM) 13.1% | viability, T/C (second compound 30 µM, first compound 31.6 pM) 115% | viability, T/C (second compound 30 µM, first compound 0.0001 µM) 123% | viability, T/C (second compound 30 µM, first compound 0.000316 µM) 111% | viability, T/C (second compound 30 µM, first compound 0.001 µM) 114% | viability, T/C (second compound 30 µM, first compound 0.00316 µM) 119% | viability, T/C (second compound 30 µM, first compound 0.01 µM) 31.2%
